In data set [1] the test system is Rattus norvegicus. As to the kind of experiment: Antiinflammatory activity in Wistar CF rat assessed as inhibition of carrageenan-induced paw oedema at 100 mg/kg, po administered 1 hr prior to carrageenan-challenge after 2 hrs (reference value: 68.6 +/- 7.14 %). The format is functional.
Data set [2] relates to Mus musculus. As to the kind of experiment: Analgesic activity in mouse assessed as latency time of paw licking as nociceptive response at 250 mg/kg, po after 0.5 hrs by hot plate test (reference value: 11.16 +/- 1.66 sec). The class given is functional.
Data set [3] relates to Mus musculus. The data set is described as follows: Analgesic activity in mouse assessed as latency time of paw licking as nociceptive response at 250 mg/kg, po after 1 hr by hot plate test (reference value: 14.3 +/- 0.99 sec). The format is functional. On the technique in general: Thermal pain tests record how soon the animal reacts.
The subject of data set [4] is Rattus norvegicus. The data set is described as follows: Ulcerogenic activity in fasted Wistar albino rat assessed as ulcer index at 100 mg/kg, po after 5 hrs. The arrangement: dose 100 mg/kg, route oral. To be noted: in vivo. The format is toxicity, organism-based.
Data set [5] has as its system Rattus norvegicus. The data set is described as follows: Antiinflammatory activity in Wistar CF rat assessed as inhibition of carrageenan-induced paw oedema at 100 mg/kg, po administered 1 hr prior to carrageenan-challenge after 3 hrs (reference value: 74.63 +/- 7.13 %). The format is functional. A general note: In the carrageenan paw model, swelling and tenderness develop within hours.

The test system of data set [6] is Mus musculus. The data set is described as follows: Analgesic activity in mouse assessed as latency time of jumping as nociceptive response at 250 mg/kg, po after 0.5 hrs by hot plate test (reference value: 11.16 +/- 1.66 sec). The format is functional.
In data set [7] the test system is Mus musculus. The data set is described as follows: Analgesic activity in mouse assessed as latency time of jumping as nociceptive response at 250 mg/kg, po after 1.5 hrs by hot plate test (reference value: 16.8 +/- 2.12 sec). The class given is functional.
In data set [8] the test system is Rattus norvegicus. As to the kind of experiment: Antiinflammatory activity in Wistar CF rat assessed as inhibition of carrageenan-induced paw oedema at 100 mg/kg, po administered 1 hr prior to carrageenan-challenge after 1 hr (reference value: 55.7 +/- […] %). The format is functional.
Data set [9] deals with Rattus norvegicus. The data set is described as follows: Antiinflammatory activity in Wistar CF rat assessed as inhibition of carrageenan-induced paw oedema at 100 mg/kg, po administered 1 hr prior to carrageenan-challenge after 4 hrs (reference value: 78.14 +/- 7.1 %). The class given is functional.
Data set [10] relates to Rattus norvegicus. The data set is described as follows: Ulcerogenic activity in fasted Wistar albino rat assessed as severity of ulcer at 100 mg/kg, po after 5 hrs. Also noted: dose 100 mg/kg, route oral. The format is toxicity, organism-based. The following applies: in vivo.
In data set [11] the test system is Mus musculus. The data set is described as follows: Analgesic activity in mouse assessed as latency time of jumping as nociceptive response at 250 mg/kg, po after 1 hr by hot plate test (reference value: 14.3 +/- 0.99 sec). The format is functional.
The subject of data set [12] is Mus musculus. As to the kind of experiment: Analgesic activity in mouse assessed as latency time of paw licking as nociceptive response at 250 mg/kg, po after 1.5 hrs by hot plate test (reference value: 16.8 +/- 2.12 sec). The format is functional.

The structures appear in SMILES notation.

For orientation: inhibition in vivo means the relative decrease from the control value, in per cent.

In the case of `COc1ccc(/C=N/c2ccc(OC(=O)C(C)c3ccc(CC(C)C)cc3)cc2)cc1` (stereo not drawn), the inhibition in vivo at 100 mg/kg in data set [1] worked out at 56.2%; in [5], 61.2%; in [8], 54%; in data set [9], 64.7%. The Time in data set [2] was 20.18 s; in data set [3] it was 35.14 s; in [6] it was 20.18 s; in data set [7], 28.1 s; in data set [11], 35.14 s; in data set [12], 28.1 s. For the same compound, the UI in data set [4] is given as 0. Further, the Activity entry in [10] is “Non-toxic”.
Consider `CC(C)Cc1ccc(C(C)C(=O)Oc2ccc(/N=C/c3ccc([N+](=O)[O-])cc3)cc2)cc1` (stereo not drawn), for which the inhibition in vivo at 100 mg/kg is 44.4% in data set [1], 50.3% in [5], 29.9% in [8] and 53.8% in data set [9]. Further, the Time in data set [2] came out at 23.52 s; in [3], 34.62 s; in data set [6], 23.52 s; in [7] it was 24.98 s; in [11] it was 34.62 s; in data set [12] it was 24.98 s. For the same compound, the UI in [4] was 0. For the same compound, the Activity entry in data set [10] is listed as “Non-toxic”.
Consider `CC(C)Cc1ccc(C(C)C(=O)Oc2ccc(/N=C/c3ccc(N(C)C)cc3)cc2)cc1` (stereo not drawn), for which the inhibition in vivo at 100 mg/kg in data set [1] stood at 96.1%; in [5] it was 104%; in data set [8], 71.7%; in [9] it was 107%. The Time in [2] was found to be 22.22 s; in data set [3], 32.14 s; in data set [6], 22.22 s; in data set [7] it was 23 s; in data set [11], 32.14 s; in [12] it was 23 s. Moreover, the UI in [4] came out at 0. The Activity result in data set [10] is “Non-toxic”.
Consider `CC(C)Cc1ccc(C(C)C(=O)Oc2ccc(/N=C/c3ccc(Br)cc3)cc2)cc1` (stereo not drawn), for which the inhibition in vivo at 100 mg/kg in [1] stood at 40.6%; in data set [5], 44.7%; in [8], 36.5%; in data set [9], 49.3%. Also, the Time in [2] is listed as 19.62 s; in data set [3], 33.44 s; in [6], 19.62 s; in data set [7], 26.12 s; in [11], 33.44 s; in [12], 26.12 s. Besides, the UI in data set [4] was found to be 0. In addition, the Activity result in data set [10] is “Non-toxic”.
Regarding `COc1ccc(/C=N/c2ccc(OC(=O)c3ccccc3Nc3cccc(C)c3C)cc2)cc1`, the inhibition in vivo at 100 mg/kg in [1] was 49.4%; in [5], 57%; in data set [8], 35.2%; in data set [9] it was 62.1%. The Time came to 21.68 s in data set [2]; 25.08 s in data set [3]; 21.68 s in data set [6]; 18.46 s in data set [7]; 25.08 s in [11]; 18.46 s in data set [12]. Besides, the UI in [4] is on record as 0. The Activity entry in data set [10] is “Non-toxic”.
`Cc1cccc(Nc2ccccc2C(=O)Oc2ccc(/N=C/c3ccc([N+](=O)[O-])cc3)cc2)c1C`: the inhibition in vivo at 100 mg/kg was determined as 41.1% in data set [1], 43.8% in data set [5], 36.9% in data set [8] and 52.5% in [9]. For the same compound, the Time in data set [2] is on record as 18.04 s; in data set [3], 25.98 s; in data set [6] it was 18.04 s; in data set [7], 20.82 s; in data set [11], 25.98 s; in data set [12] it was 20.82 s. In data set [4], the UI is 0. In addition, the Activity result in [10] is on record as “Non-toxic”.
Take `Cc1cccc(Nc2ccccc2C(=O)Oc2ccc(/N=C/c3ccc(N(C)C)cc3)cc2)c1C`: the inhibition in vivo at 100 mg/kg in data set [1] amounted to 45.6%; in data set [5] it was 53.4%; in data set [8], 41.6%; in [9], 63.5%. For the same compound, the Time is listed as 23.16 s in [2]; 24.4 s in data set [3]; 23.16 s in data set [6]; 15.96 s in [7]; 24.4 s in data set [11]; 15.96 s in data set [12]. In addition, in data set [4], the UI is recorded as 0. Moreover, in data set [10], the Activity entry is listed as “Non-toxic”.
As to `Cc1cccc(Nc2ccccc2C(=O)Oc2ccc(/N=C/c3ccc(Br)cc3)cc2)c1C`, the inhibition in vivo at 100 mg/kg turned out to be 38.5% in data set [1], 46.5% in [5], 32% in [8] and 51.7% in data set [9]. Also, the Time in data set [2] stood at 20.72 s; in [3] it was 21.22 s; in [6], 20.72 s; in data set [7] it was 19.38 s; in data set [11], 21.22 s; in data set [12], 19.38 s. Moreover, the UI in [4] came to 0. The Activity result in data set [10] is on record as “Non-toxic”.
Take `CC(C)Cc1ccc(C(C)C(=O)O)cc1` (racemic) [IBUPROFEN]: the inhibition in vivo at 100 mg/kg in data set [1] is 36.2%; in data set [5], 41.8%; in data set [8] it was 30%; in [9] it was 44%. Further, the Time in data set [2] turned out to be 17.84 s; in [3] it was 16.1 s; in [6], 17.84 s; in data set [7] it was 19 s; in [11], 16.1 s; in [12], 19 s. Also, in data set [4], the UI was found to be 4.03. In addition, the Activity entry in data set [10] was “Toxic”.

Values taken from ChEMBL document CHEMBL1938263, “Design, synthesis, biological evaluation, and comparative Cox1 and Cox2 docking of p-substituted benzylidenamino phenyl esters of ibuprofenic and mefenamic acids” (Bioorg Med Chem, 2012).
